For 15 compounds, IC50 results are on record in the Kinase Knowledgebase extract (Sharma et al. 2016).

pIC50: −log10 of the molar value.

The target in one experiment is MAPK14 (UniProt Q16539). In words: SAPK2-alpha Kinase Inhibition.
Sequence of MAPK14 (Q16539 whole entry, looked up): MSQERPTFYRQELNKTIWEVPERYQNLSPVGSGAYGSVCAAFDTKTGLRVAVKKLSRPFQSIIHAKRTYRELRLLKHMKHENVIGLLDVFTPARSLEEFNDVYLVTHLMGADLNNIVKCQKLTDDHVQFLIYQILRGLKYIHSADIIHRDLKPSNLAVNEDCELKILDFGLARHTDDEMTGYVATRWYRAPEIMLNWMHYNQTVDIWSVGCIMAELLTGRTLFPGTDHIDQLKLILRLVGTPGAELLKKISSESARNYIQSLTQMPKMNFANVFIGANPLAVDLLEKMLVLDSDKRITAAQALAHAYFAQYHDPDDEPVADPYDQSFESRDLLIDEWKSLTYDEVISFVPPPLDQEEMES
As usually defined, the pIC50 is the negative decadic logarithm of the IC50, by convention in mol/L. Read a high pIC50 as a low IC50. Regarding `Cc1nc(C)c(-c2ccnc(Nc3ccc(F)cc3)n2)s1`, the pIC50 was below 4.70.
Still for that read-out and setting: in the case of `Cc1nc(C)c(-c2ccnc(Nc3ccc(Cl)cc3)n2)s1` it was below 4.70; in that of `Cc1nc(C)c(-c2ccnc(Nc3cccc([N+](=O)[O-])c3)n2)s1`, below 4.70.

For the next experiment, the target named is CDK2 (UniProt P24941). As to the kind of experiment: Enzyme Assay.
Regarding `CNc1nc(C)c(-c2ccnc(Nc3ccc(Cl)c(C(F)(F)F)c3)n2)s1`, the pIC50 is 5.00.
Compound `Cc1nc(C)c(-c2ccnc(Nc3ccc(Cc4ccncc4)cc3)n2)s1` gave a negative logarithm of the IC50 (pIC50) of 6.15.
The same measure, in the same setting: in the case of `COCCOC(=O)c1cc(Nc2nccc(-c3sc(C)nc3C)n2)ccc1F` it was 6.22; in that of `CNc1nc(C)c(-c2ccnc(Nc3cccc(F)c3)n2)s1`, 6.22.
The same measure, in the same setting: in the case of `Cc1nc(C)c(-c2ccnc(Nc3ccc([N+](C)(C)C)cc3)n2)s1` it was 5.82; in that of `COC(=O)c1cc(Nc2nccc(-c3sc(C)nc3C)n2)ccc1Cl`, 5.96.
`CNc1nc(C)c(-c2ccnc(Nc3cc(F)cc(F)c3)n2)s1` showed a pIC50 of 5.70.
The same measure, in the same setting: in the case of `Cc1nc(C)c(-c2ccnc(Nc3cccc(NC(=N)N)c3)n2)s1` it was 5.85; in that of `COc1ccc(Nc2nccc(-c3sc(C)nc3C)n2)c(O)c1`, 6.22; in that of `CNc1nc(C)c(-c2ccnc(Nc3ccc(F)c(F)c3)n2)s1`, 5.92.
Still for that read-out and setting: in the case of `CNc1nc(C)c(-c2ccnc(Nc3ccc(OC)cc3)n2)s1` it was 6.10; in that of `CNc1nc(C)c(-c2ccnc(Nc3cccc(Cl)c3)n2)s1`, 5.52.

For the next experiment, the target named is CDK2 (UniProt P24941).
Experiment: not given
Compound `Cc1nc(C)c(-c2ccnc(Nc3ccc(Cl)cc3)n2)s1` gave a pIC50 of 5.05.
